Format in all cases: in vivo
The subject of assay [1] is sciatic nerve of rats. Nature of the assay: First local anesthetic experiment of rats: blocking of sciatic nerve, mechanical withdrawal threshold (VFH, von Frey filaments). On the procedure:
(§1) Selected above micelle, positive control lidocaine, and negative control normal saline were respectively administrated to 28 groups of test rats fully adapted to experiment environment, with five rats for each group. The administration dosage is: the concentration of lidocaine group being 2% aqueous solution (84 mmol/L), and the concentration of tested drug being 5 mmol/L. The injection volume of each rat receiving drugs or the control was 0.2 ml, and the drug or the control was injected to close to sciatic nerve of rats by guidance of nerve locator.
(§2) The tested rats were placed on bench board and allowed to inhale 5% isoflurane. After body-righting reflex abolition, rats are allowed to continue inhaling 1.5% isoflurane, to keep anesthesia. Keeping left-lateral position, their corresponding injection area sacrococygeal region was shaved, then routine sterilization and draping were performed. Two osseous anatomic landmarks greater trochanter of femur and tuber is chiadicum were laid hands, and the middle point of this line was the needle insertion position. If skin was taut, 1 ml injector was inserted along perpendicular of skin. When needlepoint reached hucklebone, the insertion was finished. […] Needle was lifted, and is oflurane was shut off. Animals were placed in observation cage until they naturally awakened.
(§3) Rats were placed in transparent observation cages with a bottom of smooth metal sieve plate, and the corrected von frey filament was used to stimulate the foot lateral skin of rats (innervated region of sciatic nerve) from down to up. […] For each stimulation, slightly bent of filament was used as a standard, or rats moved aside this side of limbs. Otherwise, once the stimulation time reached 3 s, operator stopped stimulating. Three tests were carried out for each time point, and the interval between two tests was 5 min, to avoid sensibilization.
(§4) If the mechanical withdrawal threshold value was more than 60 g, the nerve blocking was considered as effective.

Assay [2] relates to sciatic nerve of rats. Nature of the assay: First local anesthetic experiment of rats: blocking of sciatic nerve, motor function by hindlimb postural extensor thrust (PET). The protocol:
as §1, §2
(§5) The hindlimb postural extensor thrust (PET) was used for evaluation. Rats were lifted vertically and their hindlimbs of injection side stepped on the top of electronic balance. At this time, the postural extensor thrust was shown as the value of balance. When limbs were completely paralytic, the digital reading was the weight of limbs, about 20 g. If the test value was more than half of the difference between the baseline and the limbs weight, the motor function was taken as recovery; If less than or equal to half of the difference, the motor function was taken as deprivation.
(§6) The interval between completion of injection and the time point that the motor function was firstly deprivated was the time of effective motor blocking; the interval between completion of injection and the time point that the motor function was firstly recovered was the time of ineffective motor blocking; their difference was the hold time of motor blocking.

Assay [3] concerns sciatic nerve of rats. Nature of the assay: Third local anesthetic experiment of rats: hydrogels embedded near the sciatic nerve, mechanical withdrawal threshold (VFH). On the procedure:
as §3, §4
(§7) 25 mmol/L transparent uniform hydrogels of products obtained in Examples 7-10 and 13-32 were prepared under sterile conditions, as the method of Example 45, and kept for use.
(§8) Above hydrogels, positive control lidocaine, and negative control normal saline were respectively administrated to 35 groups of test rats fully adapted to experiment environment, with five rats for each group. The administration dosage is: the concentration of lidocaine group being 2% aqueous solution (84 mmol/L). The injection volume of each rat receiving drugs or the control was […], and the control was injected to near the sciatic nerve of rats by guidance of nerve locator; by surgery, the gels were embedded near the sciatic nerve of experimental rats after general anesthesia using sevoflurane. Specific procedures and the evaluation criterion for local anesthetic effect were same as mentioned in Example 60.

For assay [4], the system named is sciatic nerve of rats. Nature of the assay: Third local anesthetic experiment of rats: hydrogels embedded near the sciatic nerve, motor function (PET).
Excerpt: as §5, §6, §7, §8

Setting [5] is: rats, 0.2 ml injected close to sciatic nerve, tested drug 5 mmol/L solution (micelle), lidocaine 2% (84 mmol/L), threshold above 60 g.
The mark [6] stands for this setting: rats, 0.2 ml injected close to sciatic nerve, tested drug 5 mmol/L solution (micelle), lidocaine 2% aqueous solution (84 mmol/L).
[7] abbreviates: rats, 0.2 ml injected close to sciatic nerve, tested drug 5 mmol/L solution (micelle), lidocaine 2% (84 mmol/L).
Where [8] appears, read: rats, 25 mmol/L hydrogel, 0.2 g embedded by surgery near sciatic nerve, lidocaine 2% (84 mmol/L) injected.

Turning to `CCCC(=O)OC[N+](CC)(CC)CC(=O)Nc1c(C)cccc1C` [Example4product], in assay [1] (rat, in vivo), the “Effective local anesthetic time” value worked out at 20 min and the “The hold time of sensation blocking” value turned out to be 8 h. Further, the “The hold time of motor blocking” value in assay [2] (rat, in vivo) was 8 h.

Consider `CC[N+](CC)(COC(=O)C(C)(C)C)CC(=O)Nc1c(C)cccc1C` [Example5product], for which, in assay [1] (rat, in vivo), the “Effective local anesthetic time” value came to 18 min and the “The hold time of sensation blocking” value came to 8 h. Moreover, the “The hold time of motor blocking” value in assay [2] (rat, in vivo) amounted to 8 h.

Consider `CC[N+](CC)(CCOC(C)=O)CC(=O)Nc1c(C)cccc1C` [Example6product], for which, in assay [1] (setting [5]), the “The hold time of sensation blocking” value is 72 h. The “Effective local anesthetic time” value in assay [1] (setting [6]) amounted to 20 min. For the same molecule, the “The hold time of motor blocking” value in assay [2] (setting [7]) came to 72 h.

Take `CCCCCCCCCCCC(=O)OCC[N+](CC)(CC)CC(=O)Nc1c(C)cccc1C` [Example7product]: the “The hold time of sensation blocking” value is reported as 75 h in assay [1] (setting [5]) and 90 h in assay [3] (setting [8]). For the same molecule, the “Effective local anesthetic time” value was 20 min in assay [1] (setting [6]) and 60 min in assay [3] (setting [8]). Further, the “The hold time of motor blocking” value was 70 h in assay [2] (setting [7]) and 80 h in assay [4] (setting [8]).

In the case of `CCCCCCCCCCCCCCCC(=O)OCC[N+](CC)(CC)CC(=O)Nc1c(C)cccc1C` [Example8product], the “The hold time of sensation blocking” value in assay [1] (setting [5]) is listed as 73 h; in assay [3] (setting [8]), 92 h. Further, the “Effective local anesthetic time” value is listed as 18 min in assay [1] (setting [6]) and 70 min in assay [3] (setting [8]). The “The hold time of motor blocking” value was found to be 70 h in assay [2] (setting [7]) and 82 h in assay [4] (setting [8]).

Turning to `CCCCCCCCCCCC(=O)OCC[N+](CC)(CC)CC(=O)Nc1c(C)cccc1C` [Example9product], the “Effective local anesthetic time” value in assay [1] (rat, in vivo) was determined as 20 min; in assay [3] (rat, in vivo), 75 min. Further, the “The hold time of sensation blocking” value is reported as 80 h in assay [1] (rat, in vivo) and 98 h in assay [3] (rat, in vivo). Further, the “The hold time of motor blocking” value is 80 h in assay [2] (rat, in vivo) and 80 h in assay [4] (rat, in vivo).

`CCCCCCCCCCCCCCCC(=O)OCC[N+](CC)(CC)CC(=O)Nc1c(C)cccc1C` [Example10product]: the “Effective local anesthetic time” value is reported as 20 min in assay [1] (rat, in vivo) and 85 min in assay [3] (rat, in vivo). Further, the “The hold time of sensation blocking” value in assay [1] (rat, in vivo) is given as 81 h; in assay [3] (rat, in vivo), 80 h. The “The hold time of motor blocking” value in assay [2] (rat, in vivo) is reported as 81 h; in assay [4] (rat, in vivo), 72 h.

For `CCOC(=O)OCC[N+](CC)(CC)CC(=O)Nc1c(C)cccc1C` [Example11product], in assay [1] (rat, in vivo), the “Effective local anesthetic time” value came out at 20 min and the “The hold time of sensation blocking” value is listed as 82 h. The “The hold time of motor blocking” value in assay [2] (rat, in vivo) was 82 h.

Take `CCCCOC(=O)OCC[N+](CC)(CC)CC(=O)Nc1c(C)cccc1C` [Example12product]: in assay [1] (rat, in vivo), the “Effective local anesthetic time” value is recorded as 20 min and the “The hold time of sensation blocking” value worked out at 80 h. Further, in assay [2] (rat, in vivo), the “The hold time of motor blocking” value worked out at 80 h.

`CCCCCCOC(=O)OCC[N+](CC)(CC)CC(=O)Nc1c(C)cccc1C` [Example13product]: the “Effective local anesthetic time” value in assay [1] (rat, in vivo) is listed as 19 min; in assay [3] (rat, in vivo), 45 min. Also, the “The hold time of sensation blocking” value in assay [1] (rat, in vivo) was 79 h; in assay [3] (rat, in vivo) it was 80 h. In addition, the “The hold time of motor blocking” value was determined as 79 h in assay [2] (rat, in vivo) and 76 h in assay [4] (rat, in vivo).

On to `CCCCCCCOC(=O)OCC[N+](CC)(CC)CC(=O)Nc1c(C)cccc1C` [Example14product], for which the “Effective local anesthetic time” value in assay [1] (rat, in vivo) was 15 min; in assay [3] (rat, in vivo), 45 min. Moreover, the “The hold time of sensation blocking” value in assay [1] (rat, in vivo) came to 82 h; in assay [3] (rat, in vivo), 81 h. Further, the “The hold time of motor blocking” value in assay [2] (rat, in vivo) is given as 70 h; in assay [4] (rat, in vivo), 76 h.

As for `CCCCCCCOC(=O)OCC[N+](CC)(CC)CC(=O)Nc1c(C)cccc1C` [Example15product], the “Effective local anesthetic time” value in assay [1] (rat, in vivo) is given as 17 min; in assay [3] (rat, in vivo) it was 53 min. Further, the “The hold time of sensation blocking” value amounted to 81 h in assay [1] (rat, in vivo) and 81 h in assay [3] (rat, in vivo). Further, the “The hold time of motor blocking” value in assay [2] (rat, in vivo) came out at 66 h; in assay [4] (rat, in vivo), 79 h.

`CCCCCCCCOC(=O)OCC[N+](CC)(CC)CC(=O)Nc1c(C)cccc1C` [Example16product]: the “Effective local anesthetic time” value in assay [1] (rat, in vivo) came out at 18 min; in assay [3] (rat, in vivo) it was 56 min. Further, the “The hold time of sensation blocking” value came out at 85 h in assay [1] (rat, in vivo) and 82 h in assay [3] (rat, in vivo). Also, the “The hold time of motor blocking” value is 62 h in assay [2] (rat, in vivo) and 82 h in assay [4] (rat, in vivo).

`CCCCCCCCOC(=O)OCC[N+](CC)(CC)CC(=O)Nc1c(C)cccc1C` [Example17product]: the “Effective local anesthetic time” value amounted to 16 min in assay [1] (rat, in vivo) and 63 min in assay [3] (rat, in vivo). In addition, the “The hold time of sensation blocking” value in assay [1] (rat, in vivo) was determined as 82 h; in assay [3] (rat, in vivo), 85 h. For the same molecule, the “The hold time of motor blocking” value in assay [2] (rat, in vivo) is 62 h; in assay [4] (rat, in vivo), 82 h.

Regarding `CCCCCCCCCOC(=O)OCC[N+](CC)(CC)CC(=O)Nc1c(C)cccc1C` [Example18product], the “Effective local anesthetic time” value in assay [1] (rat, in vivo) is listed as 16 min; in assay [3] (rat, in vivo), 60 min. In addition, the “The hold time of sensation blocking” value in assay [1] (rat, in vivo) came to 88 h; in assay [3] (rat, in vivo), 83 h. For the same molecule, the “The hold time of motor blocking” value in assay [2] (rat, in vivo) is 60 h; in assay [4] (rat, in vivo), 79 h.

Regarding `CCCCCCCCCOC(=O)OCC[N+](CC)(CC)CC(=O)Nc1c(C)cccc1C` [Example19product], the “Effective local anesthetic time” value in assay [1] (rat, in vivo) is reported as 16 min; in assay [3] (rat, in vivo), 65 min. The “The hold time of sensation blocking” value in assay [1] (rat, in vivo) amounted to 82 h; in assay [3] (rat, in vivo), 90 h. In addition, the “The hold time of motor blocking” value is recorded as 56 h in assay [2] (rat, in vivo) and 88 h in assay [4] (rat, in vivo).

`CCCCCCCCCOC(=O)OCC[N+](CC)(CC)CC(=O)Nc1c(C)cccc1C` [Example21product]: the “The hold time of sensation blocking” value is 82 h in assay [1] (setting [5]) and 88 h in assay [3] (setting [8]). For the same molecule, the “Effective local anesthetic time” value in assay [1] (setting [6]) was found to be 18 min; in assay [3] (setting [8]), 75 min. In addition, the “The hold time of motor blocking” value in assay [2] (setting [7]) amounted to 60 h; in assay [4] (setting [8]), 79 h.

Regarding `CCCCCCCCCOC(=O)OCC[N+](CC)(CC)CC(=O)Nc1c(C)cccc1C` [Example22product], the results for the “The hold time of sensation blocking” value in assay [1] (setting [5]) and in assay [3] (setting [8]) were 81 h and 95 h, respectively. Further, the “Effective local anesthetic time” value in assay [1] (setting [6]) came out at 18 min; in assay [3] (setting [8]) it was 78 min. In addition, the entries for the “The hold time of motor blocking” value in assay [2] (setting [7]) and in assay [4] (setting [8]) were 61 h and 87 h, respectively.

As to `CCCCCCCCCCOC(=O)OCC[N+](CC)(CC)CC(=O)Nc1c(C)cccc1C` [Example23product], the “Effective local anesthetic time” value was 20 min in assay [1] (rat, in vivo) and 80 min in assay [3] (rat, in vivo). Also, the “The hold time of sensation blocking” value came out at 82 h in assay [1] (rat, in vivo) and 92 h in assay [3] (rat, in vivo). Further, the “The hold time of motor blocking” value in assay [2] (rat, in vivo) is reported as 62 h; in assay [4] (rat, in vivo) it was 76 h.

In the case of `CCCCCCCCCCOC(=O)OCC[N+](CC)(CC)CC(=O)Nc1c(C)cccc1C` [Example24product], the “Effective local anesthetic time” value in assay [1] (rat, in vivo) was 20 min; in assay [3] (rat, in vivo), 78 min. In addition, the “The hold time of sensation blocking” value stood at 82 h in assay [1] (rat, in vivo) and 87 h in assay [3] (rat, in vivo). The “The hold time of motor blocking” value came out at 75 h in assay [2] (rat, in vivo) and 79 h in assay [4] (rat, in vivo).

(Values after patent US10011562B2, “Long-chain dimethylaniline derivative compounds, their preparation methods, self-assembled textures, and uses thereof” (WEST CHINA HOSPITAL, SICHUAN UNIVERSITY, priority 2014, dated 2018).)
